Data as given in article PMC5329948, “Caspase vinyl sulfone small molecule inhibitors prevent axonal degeneration in human neurons and reverse cognitive impairment in Caspase-6-overexpressing mice” (Molecular Neurodegeneration, 2017).

Test system: HCT116 cells
Experiment: Cellular toxicity in HCT116 cells (phase contrast, MTT, LDH, sub-G1)
Type: cell-based, human
Conditions: for cell morphology (phase contrast) / lactate dehydrogenase (LDH) release / sub-G1 levels of DNA: HCT116, 100 μM, 24 h; for mitochondrial reductive potential (MTT): HCT116, 20, 50 or 100 μM, 24 or 48 h
Experimental: Immunofluorescence on human neuron cultures: Primary human neurons were pre-treated 2 h and serum-deprived in the presence of 100 μM NWL-117, 100 μM NWL-154, or 5 μM Z-VEID-fmk (Biomol, Plymouth meeting, PA, USA) for 24 h. Following treatment, human neurons were washed once with warm PBS, fixed for 20 min at room temperature with 4% paraformaldehyde (Sigma, Oakville, ON, CA)/4% sucrose (BioRad, Mississauga, ON, CA) for TubΔCasp6 or 2% formaldehyde (Thermo Fisher Scientific, Waltham, MA, USA)/0.2% glutaraldehyde (Sigma, Oakville, ON, CA) for pBudEGFP or pBudEGFP/APP^WT-transfected neurons, incubated in permeabilization buffer (0.1% Triton X-100, 0.1 sodium citrate) for 1 min on ice, washed with PBS, blocked for 20 min at room temperature with 10% goat serum (Sigma, Oakville, ON, CA), and incubated with primary antibodies diluted in 10% goat serum in PBS overnight at 4 °C in a humid chamber. The glass coverslips were washed with PBS, and incubated with goat anti-rabbit secondary antibody coupled to Alexa 488 (Molecular Probes, Eugene, OR, USA) or Cy3 (GE Healthcare Life Sciences, Baie D’Urfe, QC, CA) and Hoechst 33342 (ImmunoChemistry, Bloomington, MN, USA) at 1 μg/mL for 2 h at room temperature. The coverslips were washed with PBS and rinsed in Milli-Q water before mounting in fluoromount (Dako, Burlington, ON, CA). Images were acquired by fluorescence microscopy and quantified using the ImageJ software (NIH, Bethesda, MD, USA) for TubΔCasp6 and manually counted for transfected EGFP(+)-neurons. Time lapse-imaging by live fluorescence microscopy: Primary human neurons were transfected with gold beads coated with pBudEGFP or pBudEGFP/APP^WT using a Helios Gene gun (BioRad, Mississauga, ON, CA). Briefly, cells were pre-treated with 100 μM NWL inhibitors or 5 μM Z-VEID-fmk for 2 h. The media was removed and the neurons were shot at 100 psi. The media was quickly replaced with the inhibitors present. The plasmid was expressed for 16 h before setting up the fluorescence microscope (Nikon Eclipse Ti) to acquire 20 images per condition every hour for 72 h at 37 °C with 5% CO2. The images were analyzed by counting the total number of neurons (50–100 neurons per condition per independent experiment), and the number of beaded, swollen soma, and healthy neurons. In addition, the time at which cells beaded was noted. Phase contrast microscopy: HCT116 cells, plated at a density of 1×10^5 cells/well and human neurons, plated at a density of 6×10^6 cells/well on poly-L-lysine were treated with PBS, 100 μM NWL-117, 100 μM NWL-154, or 2 μM staurosporine (Biomol, Plymouth meeting, PA, USA) for 24 h. Images were acquired with the Nikon Eclipse Ti microscope and the NIS-Elements (Version 3.10) software.
MTT assay: HCT116 cells or primary human neurons were seeded in 96-well plates at a density of 1x10^4 and 1x10^5 cells per well, respectively. The next day, cells and neurons were treated with vehicle (PBS), or 20, 50, or 100 μM of NWL-117, NWL-154, or 2 μM staurosporine for 24 or 48 h. The media was replaced with […] MTT (3-(4,5-dimethylthiazol-2-yl)-2,5-diphenyltetrazolium bromide) (Sigma-Aldrich, Oakville, ON, CA) and the cells were incubated for 4 h at 37 °C in 5% CO2. The media was removed before dissolving the formazan crystals in 100 μL DMSO while shaking for 30 min. Once dissolved, the absorbance of each sample was measured at 560 nm and 670 nm using the Synergy H4 plate reader from BioTek (Winooski, VT, USA). LDH Assay: HCT116 cells were seeded in a 6-well plate at a density of 1×10^5 cells/well and treated the following day with 100 μM NWL-117 or −154 or equal volumes of vehicle (PBS) for 24 h. As a positive control, some cells were lysed for 2 h in 0.9% Triton X-100 (BioShop Canada Inc, Burlington, Ontario, CA). Media was collected and stored at −20 °C or assayed right away using the Cytotox 96 kit (Promega, Madison, WI, USA) following the manufacturer’s protocol. […]

Row | SMILES | cell morphology (phase contrast) | lactate dehydrogenase (LDH) release | sub-G1 levels of DNA | mitochondrial reductive potential (MTT)
1 | CCC(C)[C@H](NC(=O)[C@H](CCC(=O)O)NC(=O)[C@@H](NC(=O)OCc1ccccc1)C(C)C)C(=O)N[C@H](/C=C/S(C)(=O)=O)CC(=O)O (some centres unmarked) [NWL-117] | morphologically normal | did not release lactase dehydrogenase | nor did the cells show increased sub-G1 levels | comparable to vehicle-treated cells
2 | CCC(C)[C@H](NC(=O)[C@H](CCC(=O)O)NC(=O)[C@@H](NC(=O)OCc1ccccc1)C(C)C)C(=O)N[C@H](/C=C(\Cl)S(C)(=O)=O)CC(=O)O (some centres unmarked) [NWL-154] | morphologically normal | did not release lactase dehydrogenase | nor did the cells show increased sub-G1 levels | comparable to vehicle-treated cells
